Assay in all cases: NCI tumour cell line growth inhibition, 48 h
Assay [1] has as its system NCI/ADR-RES ovarian.
Assay [2] concerns COLO 205 colon.
Assay [3] has as its system SNB-75 CNS.
Assay [4] deals with 786-0 renal.
Assay [5] concerns LOX IMVI melanoma.
Assay [6] concerns MALME-3M melanoma.
For assay [7], the system named is MCF7 breast.
The test system of assay [8] is UACC-257 melanoma.
The subject of assay [9] is UACC-62 melanoma.
The subject of assay [10] is T-47D breast.

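Grown in 96-well plates, cells were treated for 48 hours with each compound at five concentrations. Insufficient inhibition: endpoint recorded as highest concentration tested. TGI is the concentration that stops growth completely.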 Some results are limits rather than exact numbers.

For `O=C(/C=C1\N=C(c2ccccc2)N(c2ccc3c(c2)Sc2cc(N4C(=O)/C(=C/C(=O)/C=C/c5ccccc5)N=C4c4ccccc4)ccc2N3)C1=O)/C=C/c1ccccc1`, the TGI in assay [1] is more than 100 µM; in assay [2] it was more than 100 µM; in assay [3] it was 45.6 µM; in assay [4], more than 100 µM; in assay [5], 84.9 µM; in assay [6], 55.8 µM. Further, the TGI is 56.1 µM in assay [7], 83 µM in assay [8], 33.3 µM in assay [9] and more than 100 µM in [10].

With `COc1ccc(N(C(=O)OC(C)(C)C)[C@@H]2C(C)=C[C@H]([S@@](=O)c3ccc(C)cc3)[C@@H]3C(=O)N(C)C(=O)[C@@H]32)cc1`, the TGI was determined as 52.1 µM in assay [1]; 31 µM in [2]; 21.4 µM in [3]; 37.9 µM in assay [4]; 17.5 µM in assay [5]; 71.8 µM in [6]. In addition, the TGI in [7] was determined as 62.1 µM; in [8], 43.8 µM; in [9], 48.4 µM; in assay [10], 99.8 µM.

Turning to `CC(=O)C1=CC=C/C1=N\Nc1ccccc1`, the TGI in assay [1] is more than 100 µM; in assay [2] it was 22.9 µM; in assay [3], 24.6 µM; in assay [4], 15.4 µM; in assay [5], 9.02 µM; in assay [6], 28.4 µM. The TGI came out at 5.68 µM in [7], 33.5 µM in assay [8], 28.7 µM in [9] and 18.3 µM in [10].

Take `COc1cccc(-n2nnc3c(N)nc(N)nc32)c1`: the TGI in assay [1], in assay [2], in assay [3], in assay [4], in assay [5] and in assay [6] was more than 100 µM each time. Moreover, the TGI in [7], in assay [8], in assay [9] and in assay [10] was more than 100 µM throughout.

Regarding `CCOC(=O)C1(C(=O)OCC)C[C@H]2CON=C2[C@@H]1c1ccc(C(F)(F)F)cc1`, the TGI in assay [1] is more than 100 µM; in assay [2], more than 100 µM; in assay [3] it was more than 100 µM; in assay [4], more than 100 µM; in assay [5], 32.4 µM; in [6] it was more than 100 µM. Further, the TGI in assay [7] is more than 100 µM; in [8], more than 100 µM; in assay [9], more than 100 µM; in assay [10] it was 94.3 µM.

Regarding `CCC(C#N)N(Cc1cccc(CN(C(C)=O)C(C#N)CC)c1)C(C)=O` (stereo not given), the TGI in assay [1], in assay [2], in assay [3], in assay [4], in assay [5] and in [6] was more than 100 µM each time. Besides, the TGI in assay [7], in assay [8], in assay [9] and in assay [10] was more than 100 µM throughout.

Take `CCCCc1cc2c(cc1O)CCC1C2CC[C@@]2(C)C1CC[C@@H]2O` (stereo not given in full): the TGI in [1] was 38.5 µM; in assay [2], 49.5 µM; in assay [3] it was 31.7 µM; in assay [4], 73.1 µM; in [5], 39.3 µM; in assay [6], 39.2 µM. For the same molecule, the TGI turned out to be 30.4 µM in assay [7], 35.9 µM in assay [8], 29.5 µM in [9] and 35.8 µM in assay [10].

As for `OC1(c2ccc(Cl)cc2)c2ccccc2C2=Nc3ccccc3CN21` (stereo not given), the TGI was 98.8 µM in assay [1]; more than 100 µM in [2]; 44 µM in [3]; 25.8 µM in assay [4]; more than 100 µM in assay [5]; 92 µM in [6]. Besides, the TGI in assay [7] is more than 87.7 µM; in [8], more than 100 µM; in assay [9] it was more than 100 µM; in assay [10], more than 100 µM.

Take `Cc1cn2c(/C=C3/C(=O)Nc4ccccc43)c(-c3ccccc3)nc2s1`: the TGI is more than 100 µM in assay [1]; more than 100 µM in assay [2]; 66.8 µM in assay [3]; 42.4 µM in [4]; more than 100 µM in [5]; more than 100 µM in assay [6]. Moreover, the TGI in [7], in [8], in assay [9] and in [10] was more than 100 µM in each case.

For the molecule `c1ccc(COc2nc3ccc(C45CC6CC(CC(C6)C4)C5)cc3[nH]2)cc1`, the TGI in assay [1] is more than 54.4 µM; in assay [2], 21.2 µM; in assay [3] it was more than 86.5 µM; in [4], more than 100 µM; in assay [5], 36.5 µM; in assay [6], 86.1 µM. Besides, the TGI in assay [7] was more than 100 µM; in [8] it was more than 26.4 µM; in assay [9], more than 100 µM; in assay [10] it was 34.1 µM.

In the case of `CCOC(=O)c1ccc(N=C/C=C(\Nc2ccc(C(=O)OCC)cc2)c2ccc3ccccc3c2)cc1`, the TGI in assay [1] was 70.3 µM; in assay [2], 32.6 µM; in [3] it was more than 100 µM; in assay [4] it was 64.1 µM; in assay [5] it was 34.4 µM; in assay [6] it was 43.6 µM. The TGI in assay [7] amounted to 67 µM; in assay [8], 92.3 µM; in assay [9], 30.5 µM; in [10], 43.2 µM.

Take `CC(C)C[C@H](NC(=O)[C@@H](Cc1cccc2ccccc12)NC(=O)N1CCOCC1)B(O)O`: the TGI in assay [1] was more than 100 µM; in assay [2], 36.4 µM; in [3], 18.8 µM; in assay [4], 19.7 µM; in assay [5] it was 5.98 µM; in assay [6], 2.72 µM. For the same molecule, the TGI in assay [7] was more than 52.7 µM; in [8], 5.18 µM; in [9], 16 µM; in assay [10] it was 5.43 µM.

Consider `CCN(CC)P1(=S)Oc2ccc3ccccc3c2-c2c(ccc3ccccc23)O1`, for which the TGI in assay [1], in assay [2], in assay [3], in assay [4], in assay [5] and in assay [6] was more than 100 µM in each case. Also, the TGI in assay [7], in [8], in [9] and in [10] was more than 100 µM in each case.

The values above are taken from PubChem BioAssay (NCI).
